Results on 11 compounds are retold here after article PMC12320831, “Synthesis and Biological Evaluation of New Chalcogen Semicarbazone (S, Se) and Their Azole Derivatives against Chagas Disease” (Journal of Medicinal Chemistry, 2024).

One data set relates to T. cruzi CAI/72 strain. Put plainly: Antiparasitic activity in C2C12 cells infected with T. cruzi CAI/72 (image-based assay). It counts as cell-based. Conditions: for EC50: mean of three experiments in triplicate (n = 9) ± SD. The protocol:
Antiparasitic activity and cytotoxicity of compounds were determined as described before (da Silva et al., Boudreau et al.). Mouse myoblasts cell line C2C12 (ATCCCRL-1772), were maintained in high glucose (4.5 g/L glucose) Dulbecco’s modified Eagle’s medium (DMEM Gibco), supplemented with 1% penicillin–streptomycin 10,000 U/mL (Gibco) and 5% fetal bovine serum (FBS, Sigma-Aldrich) at 37 °C with 5% CO2. parasites (CAI/72 strain, DTU TcI) were maintained by weekly coinfection with C2C12 cells. For all activity assays, C2C12 cells were infected at a 10:1 parasite-to-cell ratio with culture-derived trypomastigotes, which were harvested from the supernatant of infected C2C12 cells. After adding compounds to 384-well black clear-bottom plates (Greiner cat. no. 781091), trypomastigotes (7000 parasites/well) and C2C12 cells (700 cells/well) were seeded in a total volume of 50 μL of DMEM per well in the 384-well plates. Compounds were first tested at 10 μM. […] Plates were imaged with the automated ImageXpress MicroXL microscope (Molecular Devices) and analyzed by MetaXpress software (Molecular Devices) using a custom module optimized for this assay. Infection levels (parasites per host cell) were normalized to the positive control (40 μM BNZ) and negative control (DMSO). Antiparasitic activity (EC50) ± standard deviation (SD) and host cell cytotoxicity (C2C12 viability) values were determined from the DRC using Prism software (GraphPad Software, La Jolla, CA). Every assay has three biological replicates, each in triplicates (n = 9 data points).

In data set [1] the target is T1, Recombinant human cathepsin L (hCatL) (Homo sapiens, UniProt P07711).
T1 construct: purchased R&D Systems 952-CY
T1 sequence (P07711 114-333): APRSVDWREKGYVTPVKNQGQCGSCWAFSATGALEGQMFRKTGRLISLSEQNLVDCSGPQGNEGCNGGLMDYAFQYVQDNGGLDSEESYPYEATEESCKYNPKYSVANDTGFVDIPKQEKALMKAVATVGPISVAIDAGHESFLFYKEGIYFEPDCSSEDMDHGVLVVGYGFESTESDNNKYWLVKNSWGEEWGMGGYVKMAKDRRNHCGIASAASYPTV
Put plainly: Human cathepsin L inhibition assay (Z-FR-AMC substrate). It counts as biochemical. The method, then: Compounds were screened at 10 μM. […] The experiment was performed for 30 min.
(§1) All experiments were accomplished in a 384-well black microplate, using a Synergy HTX (Biotek) plate reader at 25 °C with absorption/emission wavelengths of 360/460 nm. All assays were performed in triplicate wells and DMSO was used as a vehicle control. Enzymatic activity was measured and normalized to DMSO controls, and the inhibitor E-64 (10 μM) was used as a positive control for all assays. All experiments were performed in triplicates, with at least two independent assays (n = 6 data points). IC50 values were determined through nonlinear regression. Obtained data were treated and analyzed using GraphPad Prism 9.0 (GraphPad Software, La Jolla, California).

The nature of data set [2]: Host cell cytotoxicity (C2C12 viability). Type of data set: cell-based, Mouse. The note with it: mouse; for viability at 48 h, 10 µM: < 50% viability considered cytotoxic; for CC50 at 48 h: viability calculated at 10 μM. The method, then: Antiparasitic activity and cytotoxicity of compounds were determined as described before (da Silva et al., Boudreau et al.). Mouse myoblasts cell line C2C12 (ATCCCRL-1772), were maintained in high glucose (4.5 g/L glucose) Dulbecco’s modified Eagle’s medium (DMEM Gibco), supplemented with 1% penicillin–streptomycin 10,000 U/mL (Gibco) and 5% fetal bovine serum (FBS, Sigma-Aldrich) at 37 °C with 5% CO2. parasites (CAI/72 strain, DTU TcI) were maintained by weekly coinfection with C2C12 cells. For all activity assays, C2C12 cells were infected at a 10:1 parasite-to-cell ratio with culture-derived trypomastigotes, which were harvested from the supernatant of infected C2C12 cells. After adding compounds to 384-well black clear-bottom plates (Greiner cat. no. 781091), trypomastigotes (7000 parasites/well) and C2C12 cells (700 cells/well) were seeded in a total volume of 50 μL of DMEM per well in the 384-well plates. Compounds were first tested at 10 μM. […] After 48 h at 37 °C and 5% CO2, plates were fixed with 4% formaldehyde solution for at least 1 h, washed with 1× PBS, and stained with 5 μg/mL of 4′,6-diamidino-2-phenylindole (DAPI) for at least 1 h prior to reading. Plates were imaged with the automated ImageXpress MicroXL microscope (Molecular Devices) and analyzed by MetaXpress software (Molecular Devices) using a custom module optimized for this assay. Infection levels (parasites per host cell) were normalized to the positive control (40 μM BNZ) and negative control (DMSO). Antiparasitic activity (EC50) ± standard deviation (SD) and host cell cytotoxicity (C2C12 viability) values were determined from the DRC using Prism software (GraphPad Software, La Jolla, CA). Every assay has three biological replicates, each in triplicates (n = 9 data points).

A further data set concerns the target T2, recombinant Cz (cruzain) (Trypanosoma cruzi, UniProt P25779).
T2 construct: Cz was expressed and purified as described in da Silva et al; made in house
Put plainly: biochemical. Conditions: for SICz: ratio between IC50 hCatL and IC50 Cz; for inhibition at 10 µM: read-out: Cz inhibition (%), 10 µM; for Cz inhibition (%): 10 µM. The method, then:
The screening assay was performed using 1 nM of Cz diluted in 0.1 M sodium acetate pH 5.5, 1 mM dithiothreitol (DTT), and 0.01% Triton X-100. Cz was expressed and purified as described in da Silva et al. The reaction starts after 10 min incubating the enzyme with the compounds (10 μM), when adding 2.5 μM of the substrate Z-FR-AMC final concentration (Z-Phe-Arg-amidomethylcoumarin, Sigma-Aldrich, C9521) diluted in the same assay buffer (final volume of 30 μL). The experiment was performed for 10 min. […] The DRC was performed with at least nine different concentrations of the inhibitors, diluted by 2-fold serial dilution, ranging from […] to 10 μM.
as §1

The mark [3] stands for this setting: Trypanosoma cruzi, 10 µM, C2C12 infected cells, read-out: Anti-Tc CAI/72 activity (%).
Setting [4] is: mean of two experiments in triplicate (n = 6) ± SEM, read-out: IC50 hCatL.
The mark [5] stands for this setting: C2C12 myoblast cells infected with trypomastigotes.
Where [6] appears, read: mean of two experiments in triplicate (n = 6) ± SEM, read-out: IC50 Cz.
[7] abbreviates: no DRC performed, bound from the screen at 10 µM, read-out: IC50 hCatL.
The mark [8] stands for this setting: Trypanosoma cruzi, C2C12, 48 h, read-out: EC50 Tc CAI/72, intracellular amastigotes in C2C12 cells, 48 h.
[9] abbreviates: read-out: EC50 Tc CAI/72, intracellular amastigotes in C2C12 cells, 48 h.
Setting [10] is: each of two biological replicates in triplicate, read-out: IC50 hCatL, single biological replicate (Figure 4).
[11] abbreviates: IC50 Cz, single biological replicate (Figure 3), each of two biological replicates in triplicate.
Setting [12] is: Trypanosoma cruzi, C2C12, read-out: Anti-Tc CAI/72 activity (%).

SMILES strings stand for the structures. Values joined by “and” are separate entries in the source; they are usually repeats but may differ in a detail not shown here. Identical values can stand only once. Counter-ions that a name gives are not always drawn. Like-named read-outs stand apart in the source and are kept apart here.

T2 sequence (P25779 123-337 limits assumed): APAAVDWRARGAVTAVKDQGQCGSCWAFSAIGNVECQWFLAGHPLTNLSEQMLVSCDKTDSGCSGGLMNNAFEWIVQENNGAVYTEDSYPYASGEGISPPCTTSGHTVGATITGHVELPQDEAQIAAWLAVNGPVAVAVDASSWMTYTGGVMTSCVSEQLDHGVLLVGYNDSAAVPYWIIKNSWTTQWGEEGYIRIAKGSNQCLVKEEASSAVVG

For `C/C(=N\NC(N)=S)c1cccc([N+](=O)[O-])c1` [Compound S1h, (E)-2-(1-(3-Nitrophenyl)ethylidene)hydrazine-1-carbothioamide], the inhibition at 10 µM in the data set on T. cruzi CAI/72 strain (setting [3]) stood at 24.8%; in data set [1], 94.5%; at recombinant Cz (cruzain) it was 100%. The IC50 (as a rule, the concentration at which inhibition is half-maximal) in data set [1] (setting [4]) amounted to 190 ± 18.4 nM; at recombinant Cz (cruzain) (setting [6]) it was 1.15 ± 0.74 nM. For the same compound, in data set [2] (setting [5]), the viability (as a rule, a read-out of living cells in per cent, often relative to untreated cells) at 48 h, 10 µM was more than 100%. For the same compound, the SICz on recombinant Cz (cruzain) was 164.83.

For the compound `C/C(=N\Nc1nc(C)cs1)c1cccc([N+](=O)[O-])c1` [Compound S2h, (E)-4-Methyl-2-(2-(1-(3-nitrophenyl)ethylidene)hydrazineyl)thiazole Hydrochloride], the inhibition at 10 µM amounted to 28.8% in the data set on T. cruzi CAI/72 strain (setting [3]), 12.1% in data set [1] and 96.9% on recombinant Cz (cruzain). The IC50 in data set [1] (setting [7]) was more than 10000 nM; at recombinant Cz (cruzain) (setting [6]) it was 1280 ± 1120 nM. This compound displayed a viability at 48 h, 10 µM in data set [2] (setting [5]) of more than 100%.

Consider `C/C(=N\Nc1nc(C)cs1)c1cccc(Cl)c1` [Compound S2i, (E)-2-(2-(1-(3-Chlorophenyl)ethylidene)hydrazineyl)-4-methylthiazole], for which the inhibition at 10 µM in the data set with T. cruzi CAI/72 strain (setting [3]) came to 49.3%; in data set [1] it was 24.7%; on recombinant Cz (cruzain), 97.5%. Also, the 50% inhibitory concentration (IC50) in data set [1] (setting [7]) was more than 10000 nM; at recombinant Cz (cruzain) (setting [6]), 142 ± 79.2 nM. Further, the viability at 48 h, 10 µM in data set [2] (setting [5]) was more than 100%.

For `C/C(=N\NC(N)=[Se])c1ccc(Br)cc1` [Se1f, (E)-2-(1-(4-Bromophenyl)ethylidene)hydrazine-1-carboselenoamide], the figures for the EC50 with T. cruzi CAI/72 strain (setting [8]) and in the data set with T. cruzi CAI/72 strain (setting [9]) were less than 1000 nM and 770 ± 170 nM, respectively. Further, the inhibition at 10 µM in the data set on T. cruzi CAI/72 strain (setting [3]) is 69.5%; in data set [1] it was 97.3%; on recombinant Cz (cruzain) it was more than 85%. Besides, the IC50 is 91.3 nM and 121 nM in data set [1] (setting [10]); 106 ± 14.9 nM in data set [1] (setting [4]); 17.8 nM and 10.7 nM at recombinant Cz (cruzain) (setting [11]); 14.3 ± 3.57 nM on recombinant Cz (cruzain) (setting [6]). In data set [2], the viability at 48 h, 10 µM is more than 100%. Further, in data set [2], the CC50 (usually the concentration at which the toxic effect on the cells reaches its halfway point) at 48 h is more than 10000 nM. Further, the “Cz inhibition (%)” value on recombinant Cz (cruzain) is listed as 101.08%. In addition, on recombinant Cz (cruzain), the SICz is reported as 7.42.

On to `C/C(=N\NC(N)=[Se])c1cccc([N+](=O)[O-])c1` [Se1h, (E)-2-(1-(3-Nitrophenyl)ethylidene)hydrazine-1-carboselenoamide], for which the inhibition at 10 µM was 41% with T. cruzi CAI/72 strain (setting [3]), 98.7% in data set [1] and 104% on recombinant Cz (cruzain). For the same compound, the IC50 in data set [1] (setting [4]) was found to be 9.32 ± 0.38 nM; on recombinant Cz (cruzain) (IC50 Cz, mean of two experiments in triplicate (n = 6) ± SEM), 0.91 ± 0.18 nM. The viability at 48 h, 10 µM in data set [2] worked out at 97.3%. Also, at recombinant Cz (cruzain), the SICz was found to be 10.22.

Take `C/C(=N\Nc1nc(C)c[se]1)c1ccc(Br)cc1` [Se2f, (E)-2-(2-(1-(4-Bromophenyl)ethylidene)hydrazineyl)-4-methyl-1,3-selenazole Hydrochloride]: the inhibition at 10 µM in the data set on T. cruzi CAI/72 strain (setting [12]) worked out at 18.3%; on recombinant Cz (cruzain) it was 98.6%. This compound displayed a viability at 48 h, 10 µM in data set [2] of 87.7%.

As for `COc1cccc(/C(C)=N/Nc2nc(C)c[se]2)c1` [Se2g, (E)-2-(2-(1-(3-Methoxyphenyl)ethylidene)hydrazineyl)-4-methyl-1,3-selenazole Hydrochloride], the EC50 in the data set with T. cruzi CAI/72 strain (setting [8]) worked out at 2670 ± 1130 nM. The inhibition at 10 µM with T. cruzi CAI/72 strain (setting [12]) came to 55.1%. In addition, in data set [2], the viability at 48 h, 10 µM is more than 100% and the CC50 at 48 h is more than 10000 nM. The inhibition at 10 µM on recombinant Cz (cruzain) came to 62.9%.

Turning to `C/C(=N\Nc1nc(C)c[se]1)c1cccc(Cl)c1.Cl` [Se2i, (E)-2-(2-(1-(3-Chlorophenyl)ethylidene)hydrazineyl)-4-methyl-1,3-selenazole Hydrochloride], the EC50 in the data set on T. cruzi CAI/72 strain (setting [8]) is less than 1000 nM; in the data set on T. cruzi CAI/72 strain (setting [9]) it was 530 ± 570 nM. The inhibition at 10 µM in the data set on T. cruzi CAI/72 strain (setting [12]) is 65%; in data set [1], 98%; at recombinant Cz (cruzain) it was more than 85%. For the same compound, the IC50 was 458 nM and 449 nM in data set [1] (setting [10]); 453.7 ± 4.4 nM in data set [1] (setting [4]); 63.8 nM and 99.5 nM at recombinant Cz (cruzain) (setting [11]); 81.7 ± 17.9 nM on recombinant Cz (cruzain) (setting [6]). Besides, the viability at 48 h, 10 µM in data set [2] is more than 100%. Further, in data set [2], the CC50 at 48 h was more than 10000 nM. Also, the “Cz inhibition (%)” value at recombinant Cz (cruzain) is on record as 102.55%. Moreover, on recombinant Cz (cruzain), the SICz worked out at 5.55.

As for `C/C(=N\Nc1nc(C)c[se]1)c1ccc(F)c(F)c1` [Se2j, (E)-2-(2-(1-(3,4-Difluorophenyl)ethylidene)hydrazineyl)-4-methyl-1,3-selenazole Hydrochloride], the inhibition at 10 µM was 18.7% with T. cruzi CAI/72 strain (setting [12]) and 102% on recombinant Cz (cruzain). This compound had a viability at 48 h, 10 µM in data set [2] of 38.3%.

As for `C/C(=N\Nc1nc(C)c[se]1)c1csc2ccccc12` [Se2o, (E)-2-(2-(1-(Benzo[b]thiophen-3-yl)ethylidene)hydrazineyl)-4-methyl-1,3-selenazole Hydrochloride], the inhibition at 10 µM is 42.3% in the data set on T. cruzi CAI/72 strain (setting [12]) and 101% on recombinant Cz (cruzain). Moreover, the viability at 48 h, 10 µM in data set [2] was more than 100%.

Turning to `C/C(=N\Nc1nc(C)c[se]1)c1cc2ccccc2o1` [Se2p, (E)-2-(2-(1-(Benzofuran-2-yl)ethylidene)hydrazineyl)-4-methyl-1,3-selenazole Hydrochloride], the inhibition at 10 µM with T. cruzi CAI/72 strain (setting [12]) came to 26.6%; on recombinant Cz (cruzain), 98.5%. In data set [2], this compound returned a viability at 48 h, 10 µM of more than 100%.
